Source: PubChem BioAssay (NCI)
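Briefly, cells in 96-well plates were exposed to five compound concentrations for 48 h, and endpoints were estimated by linear interpolation. TGI denotes the concentration required for complete inhibition of growth.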

Columns and labels:
Experiment in all cases: NCI-60 cell line screen, 48 h
DU-145 prostate = test system: DU-145 prostate
EKVX NSCLC = test system: EKVX NSCLC
HCT-15 colon = test system: HCT-15 colon
HOP-62 NSCLC = test system: HOP-62 NSCLC
HT29 colon = test system: HT29 colon
MALME-3M melanoma = test system: MALME-3M melanoma
NCI/ADR-RES ovarian = test system: NCI/ADR-RES ovarian
OVCAR-5 ovarian = test system: OVCAR-5 ovarian
RPMI-8226 leukemia = test system: RPMI-8226 leukemia
SF-539 CNS = test system: SF-539 CNS
SK-MEL-2 melanoma = test system: SK-MEL-2 melanoma
SNB-19 CNS = test system: SNB-19 CNS
T-47D breast = test system: T-47D breast
UACC-62 melanoma = test system: UACC-62 melanoma

CC(OC(=O)C(CC(=O)OC(C)(C)C)NC(=O)OC(C)(C)C)C(=O)OCc1ccccc1 (centres undefined)
TGI (DU-145 prostate): > 100 µM
TGI (EKVX NSCLC): > 100 µM
TGI (HCT-15 colon): > 100 µM
TGI (HOP-62 NSCLC): > 100 µM
TGI (HT29 colon): > 100 µM
TGI (MALME-3M melanoma): > 100 µM
TGI (NCI/ADR-RES ovarian): > 100 µM
TGI (OVCAR-5 ovarian): > 100 µM
TGI (RPMI-8226 leukemia): > 100 µM
TGI (SF-539 CNS): > 100 µM
TGI (SK-MEL-2 melanoma): > 100 µM
TGI (SNB-19 CNS): > 100 µM
TGI (T-47D breast): > 100 µM
TGI (UACC-62 melanoma): > 100 µM

Cc1cccc(-c2cc(=O)c3c(C)cc(C)nc3[nH]2)c1
TGI (DU-145 prostate): > 100 µM
TGI (EKVX NSCLC): > 100 µM
TGI (HCT-15 colon): > 56 µM
TGI (HOP-62 NSCLC): > 100 µM
TGI (HT29 colon): 19.1 µM
TGI (MALME-3M melanoma): > 100 µM
TGI (NCI/ADR-RES ovarian): 4.68 µM
TGI (OVCAR-5 ovarian): > 100 µM
TGI (RPMI-8226 leukemia): > 52.1 µM
TGI (SF-539 CNS): 12.1 µM
TGI (SK-MEL-2 melanoma): > 100 µM
TGI (SNB-19 CNS): > 100 µM
TGI (T-47D breast): > 100 µM
TGI (UACC-62 melanoma): > 100 µM

O=C(C/C(=N/O)c1cc(-c2ccccc2)no1)c1ccccc1
TGI (DU-145 prostate): > 100 µM
TGI (EKVX NSCLC): > 100 µM
TGI (HCT-15 colon): > 100 µM
TGI (HOP-62 NSCLC): 40.2 µM
TGI (HT29 colon): > 100 µM
TGI (MALME-3M melanoma): > 100 µM
TGI (NCI/ADR-RES ovarian): 69.1 µM
TGI (OVCAR-5 ovarian): > 100 µM
TGI (RPMI-8226 leukemia): > 100 µM
TGI (SF-539 CNS): 35 µM
TGI (SK-MEL-2 melanoma): > 100 µM
TGI (SNB-19 CNS): 73.3 µM
TGI (T-47D breast): > 100 µM
TGI (UACC-62 melanoma): > 100 µM

C[N+](C)(C)CC(=O)N/N=C/c1ccncc1
TGI (DU-145 prostate): > 100 µM
TGI (EKVX NSCLC): > 100 µM
TGI (HCT-15 colon): > 100 µM
TGI (HOP-62 NSCLC): > 100 µM
TGI (HT29 colon): > 100 µM
TGI (MALME-3M melanoma): > 100 µM
TGI (NCI/ADR-RES ovarian): > 100 µM
TGI (OVCAR-5 ovarian): > 100 µM
TGI (RPMI-8226 leukemia): > 100 µM
TGI (SF-539 CNS): > 100 µM
TGI (SK-MEL-2 melanoma): > 100 µM
TGI (SNB-19 CNS): > 100 µM
TGI (T-47D breast): > 100 µM
TGI (UACC-62 melanoma): > 100 µM

COc1ccc(/C=C2\CCC/C(=C\c3ccc(O)c(CN4CCCCC4)c3)C2=O)cc1
TGI (DU-145 prostate): 36.9 µM
TGI (EKVX NSCLC): 51.7 µM
TGI (HCT-15 colon): 36 µM
TGI (HOP-62 NSCLC): > 56.3 µM
TGI (HT29 colon): 19.9 µM
TGI (MALME-3M melanoma): 49 µM
TGI (NCI/ADR-RES ovarian): 32.8 µM
TGI (OVCAR-5 ovarian): 61.3 µM
TGI (RPMI-8226 leukemia): > 43.8 µM
TGI (SF-539 CNS): 16.1 µM
TGI (SK-MEL-2 melanoma): 43 µM
TGI (SNB-19 CNS): 70.2 µM
TGI (T-47D breast): > 73.8 µM
TGI (UACC-62 melanoma): 36.1 µM

CCOC(=O)C(C(=S)SC)c1nn2c(=O)cc(C)nc2s1 (centres undefined)
TGI (DU-145 prostate): 32.8 µM
TGI (EKVX NSCLC): 34.3 µM
TGI (HCT-15 colon): 35.3 µM
TGI (HOP-62 NSCLC): 42.7 µM
TGI (HT29 colon): 36.9 µM
TGI (MALME-3M melanoma): 31 µM
TGI (NCI/ADR-RES ovarian): 54.8 µM
TGI (OVCAR-5 ovarian): 38.7 µM
TGI (RPMI-8226 leukemia): 48.7 µM
TGI (SF-539 CNS): 36 µM
TGI (SK-MEL-2 melanoma): 41.5 µM
TGI (SNB-19 CNS): 43.7 µM
TGI (T-47D breast): 42.6 µM
TGI (UACC-62 melanoma): 47.6 µM

Cc1ccc2nc(C=Nc3ccc(Cl)cc3)cc(C)c2c1
TGI (DU-145 prostate): > 100 µM
TGI (EKVX NSCLC): > 100 µM
TGI (HCT-15 colon): 0.4 µM
TGI (HOP-62 NSCLC): 22.5 µM
TGI (HT29 colon): 37.8 µM
TGI (MALME-3M melanoma): > 64.9 µM
TGI (NCI/ADR-RES ovarian): 32.1 µM
TGI (OVCAR-5 ovarian): > 100 µM
TGI (RPMI-8226 leukemia): > 51.3 µM
TGI (SF-539 CNS): 12.8 µM
TGI (SK-MEL-2 melanoma): > 100 µM
TGI (SNB-19 CNS): > 100 µM
TGI (T-47D breast): 48.1 µM
TGI (UACC-62 melanoma): 40 µM

O=C1C=CC(=O)c2c1ccc1c3ccccc3n(Cc3cccc([N+](=O)[O-])c3)c21
TGI (DU-145 prostate): > 100 µM
TGI (EKVX NSCLC): > 100 µM
TGI (HCT-15 colon): 50.2 µM
TGI (HOP-62 NSCLC): > 100 µM
TGI (HT29 colon): > 73.1 µM
TGI (MALME-3M melanoma): 40 µM
TGI (NCI/ADR-RES ovarian): > 90.3 µM
TGI (OVCAR-5 ovarian): > 100 µM
TGI (RPMI-8226 leukemia): > 55.8 µM
TGI (SF-539 CNS): > 80.6 µM
TGI (SK-MEL-2 melanoma): > 100 µM
TGI (SNB-19 CNS): > 100 µM
TGI (T-47D breast): 67.7 µM
TGI (UACC-62 melanoma): > 78.6 µM

COc1ccc2cc(-c3nc(N)nc(N4N=C(C)CC4(C)C)n3)c(=N)oc2c1
TGI (DU-145 prostate): 32.6 µM
TGI (EKVX NSCLC): 67.2 µM
TGI (HCT-15 colon): 32 µM
TGI (HOP-62 NSCLC): 41.6 µM
TGI (HT29 colon): 31.7 µM
TGI (MALME-3M melanoma): 32.7 µM
TGI (NCI/ADR-RES ovarian): > 100 µM
TGI (OVCAR-5 ovarian): 41.3 µM
TGI (RPMI-8226 leukemia): 36.6 µM
TGI (SF-539 CNS): 30.2 µM
TGI (SK-MEL-2 melanoma): 35.7 µM
TGI (SNB-19 CNS): 40.1 µM
TGI (T-47D breast): 38.9 µM
TGI (UACC-62 melanoma): 36.3 µM

O=C1C=C(OCCCCl)C(=O)c2c(O)ccc(O)c21
TGI (DU-145 prostate): 0.863 µM
TGI (EKVX NSCLC): 3.19 µM
TGI (HCT-15 colon): 1.58 µM
TGI (HOP-62 NSCLC): 2.75 µM
TGI (HT29 colon): 1.31 µM
TGI (MALME-3M melanoma): 0.322 µM
TGI (NCI/ADR-RES ovarian): 7.3 µM
TGI (OVCAR-5 ovarian): 2.85 µM
TGI (RPMI-8226 leukemia): 6.01 µM
TGI (SF-539 CNS): 2.76 µM
TGI (SK-MEL-2 melanoma): 2.43 µM
TGI (SNB-19 CNS): 3.55 µM
TGI (T-47D breast): 4.63 µM
TGI (UACC-62 melanoma): 0.882 µM

O=C(CCCl)NNC1=NCCCN1
TGI (DU-145 prostate): > 100 µM
TGI (EKVX NSCLC): > 100 µM
TGI (HCT-15 colon): > 100 µM
TGI (HOP-62 NSCLC): > 100 µM
TGI (HT29 colon): > 100 µM
TGI (MALME-3M melanoma): > 100 µM
TGI (NCI/ADR-RES ovarian): > 100 µM
TGI (OVCAR-5 ovarian): > 100 µM
TGI (RPMI-8226 leukemia): > 100 µM
TGI (SF-539 CNS): > 100 µM
TGI (SK-MEL-2 melanoma): > 100 µM
TGI (SNB-19 CNS): > 100 µM
TGI (T-47D breast): > 100 µM
TGI (UACC-62 melanoma): > 100 µM
